Experimental data as given in US7396837B2, “Antitumoral analogs of lamellarins” (Pharma Mar, S.A.U., priority 2002, dated 2008).

Experiments:
Type in all cases: cell-based
K-562 = test: SRB colorimetric cell growth inhibition assay, K-562; conditions: Homo sapiens, K562, K-562; for GI50: GI=growth inhibition, read-out: GI50 K-562; for CC50: cell killing (cytotoxic effect), read-out: LC50 K-562; for IC (TGI): total growth inhibition (cytostatic effect), read-out: TGI K-562
In short: (§1)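 Growth inhibition (GI), cytostatic total growth inhibition (TGI) and cytotoxic cell-kill (LC) parameters were calculated from SRB-stained cultures held under constant compound exposure, triplicates averaged.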

A-549 = test: SRB colorimetric cell growth inhibition assay, A-549; conditions: Homo sapiens, A549, A-549; for GI50: GI=growth inhibition, read-out: GI50 A-549; for CC50: cell killing (cytotoxic effect), read-out: LC50 A-549; for IC (TGI): total growth inhibition (cytostatic effect), read-out: TGI A-549
In short: as §1

SK-MEL-28 = test: SRB colorimetric cell growth inhibition assay, SK-MEL-28; conditions: Homo sapiens, SK-MEL-28, MEL-28; for GI50: GI=growth inhibition, read-out: GI50 MEL-28; for CC50: cell killing (cytotoxic effect), read-out: LC50 MEL-28; for IC (TGI): total growth inhibition (cytostatic effect), read-out: TGI MEL-28
In short: as §1

HT-29 = test: SRB colorimetric cell growth inhibition assay, HT-29; conditions: Homo sapiens, HT-29, HT-29; for GI50: GI=growth inhibition, read-out: GI50 HT-29; for CC50: cell killing (cytotoxic effect), read-out: LC50 HT-29; for IC (TGI): total growth inhibition (cytostatic effect), read-out: TGI HT-29
In short: as §1

LoVo = test: SRB colorimetric cell growth inhibition assay, LoVo; conditions: Homo sapiens, LoVo; for GI50: GI=growth inhibition, read-out: GI50 LOVO; for CC50: cell killing (cytotoxic effect), read-out: LC50 LOVO; for IC (TGI): total growth inhibition (cytostatic effect), read-out: TGI LOVO
In short: as §1

LoVo-Dox = test: SRB colorimetric cell growth inhibition assay, LoVo-Dox (MDR); conditions: Homo sapiens, LOVO-DOX; for GI50: GI=growth inhibition, read-out: GI50 LOVO-DOX; for CC50: cell killing (cytotoxic effect), read-out: LC50 LOVO-DOX; for IC (TGI): total growth inhibition (cytostatic effect), read-out: TGI LOVO-DOX
In short: as §1

DU-145 = test: SRB colorimetric cell growth inhibition assay, DU-145; conditions: Homo sapiens, DU-145, DU-145; for GI50: GI=growth inhibition, read-out: GI50 DU-145; for CC50: cell killing (cytotoxic effect), read-out: LC50 DU-145; for IC (TGI): total growth inhibition (cytostatic effect), read-out: TGI DU-145
In short: as §1

LNCaP = test: SRB colorimetric cell growth inhibition assay, LNCaP; conditions: Homo sapiens, LNCaP, LN-caP; for GI50: GI=growth inhibition, read-out: GI50 LN-caP; for CC50: cell killing (cytotoxic effect), read-out: LC50 LN-caP; for IC (TGI): total growth inhibition (cytostatic effect), read-out: TGI LN-caP
In short: as §1

SK-BR-3 = test: SRB colorimetric cell growth inhibition assay, SK-BR-3; conditions: Homo sapiens, SK-BR-3, SK-BR-3; for GI50: GI=growth inhibition, read-out: GI50 SK-BR-3; for CC50: cell killing (cytotoxic effect), read-out: LC50 SK-BR-3; for IC (TGI): total growth inhibition (cytostatic effect), read-out: TGI SK-BR-3
In short: as §1

IGROV = test: SRB colorimetric cell growth inhibition assay, IGROV; conditions: Homo sapiens, IGROV; for GI50: GI=growth inhibition, read-out: GI50 IGROV; for CC50: cell killing (cytotoxic effect), read-out: LC50 IGROV; for IC (TGI): total growth inhibition (cytostatic effect), read-out: TGI IGROV
In short: as §1

IGROV-ET = test: SRB colorimetric cell growth inhibition assay, IGROV-ET (ET-743 resistant); conditions: Homo sapiens, IGROV-ET; for GI50: GI=growth inhibition, read-out: GI50 IGROV-ET; for CC50: cell killing (cytotoxic effect), read-out: LC50 IGROV-ET; for IC (TGI): total growth inhibition (cytostatic effect), read-out: TGI IGROV-ET
In short: as §1

HeLa = test: SRB colorimetric cell growth inhibition assay, HeLa; conditions: Homo sapiens, HeLa; for GI50: GI=growth inhibition, read-out: GI50 HELA; for CC50: cell killing (cytotoxic effect), read-out: LC50 HELA; for IC (TGI): total growth inhibition (cytostatic effect), read-out: TGI HELA
In short: as §1

HeLa-APL = test: SRB colorimetric cell growth inhibition assay, HeLa-APL (aplidine resistant); conditions: Homo sapiens, HELA-APL; for GI50: GI=growth inhibition, read-out: GI50 HELA-APL; for CC50: cell killing (cytotoxic effect), read-out: LC50 HELA-APL; for IC (TGI): total growth inhibition (cytostatic effect), read-out: TGI HELA-APL
In short: as §1

PANC-1 = test: SRB colorimetric cell growth inhibition assay, PANC-1; conditions: Homo sapiens, PANC-1, PANC-1; for GI50: GI=growth inhibition, read-out: GI50 PANC-1; for CC50: cell killing (cytotoxic effect), read-out: LC50 PANC-1; for IC (TGI): total growth inhibition (cytostatic effect), read-out: TGI PANC-1
In short: as §1

COc1cc(-c2c3c4cc(OC)c(O)cc4oc(=O)c3n3ccc4c(N)cccc4c23)ccc1O [Compound 182]
GI50 (K-562): 0.316 µM
CC50 (K-562): 21.3 µM
IC (TGI) (K-562): 4.85 µM
GI50 (A-549): 9.58 µM
CC50 (A-549): 21.3 µM
IC (TGI) (A-549): 21.3 µM
GI50 (SK-MEL-28): 1.08 µM
CC50 (SK-MEL-28): 21.3 µM
IC (TGI) (SK-MEL-28): 21.3 µM
GI50 (HT-29): 21.3 µM
CC50 (HT-29): 21.3 µM
IC (TGI) (HT-29): 21.3 µM
GI50 (LoVo): 21.3 µM
CC50 (LoVo): 21.3 µM
IC (TGI) (LoVo): 21.3 µM
GI50 (LoVo-Dox): 1.21 µM
CC50 (LoVo-Dox): 21.3 µM
IC (TGI) (LoVo-Dox): 21.3 µM
GI50 (DU-145): 1.08 µM
CC50 (DU-145): 21.3 µM
IC (TGI) (DU-145): 21.3 µM
GI50 (LNCaP): 1.75 µM
CC50 (LNCaP): 21.3 µM
IC (TGI) (LNCaP): 21.3 µM
GI50 (SK-BR-3): 0.365 µM
CC50 (SK-BR-3): 12 µM
IC (TGI) (SK-BR-3): 1.25 µM
GI50 (IGROV): 2.86 µM
CC50 (IGROV): 21.3 µM
IC (TGI) (IGROV): 21.3 µM
GI50 (IGROV-ET): 3.16 µM
CC50 (IGROV-ET): 21.3 µM
IC (TGI) (IGROV-ET): 21.3 µM
GI50 (HeLa): 8.52 µM
CC50 (HeLa): 21.3 µM
IC (TGI) (HeLa): 21.3 µM
GI50 (HeLa-APL): 4.46 µM
CC50 (HeLa-APL): 21.3 µM
IC (TGI) (HeLa-APL): 21.3 µM
GI50 (PANC-1): 4.85 µM
CC50 (PANC-1): 21.3 µM
IC (TGI) (PANC-1): 21.3 µM

COc1cc(-c2c3c4cc(OC)c(OC(=O)CCCCCN)cc4oc(=O)c3n3ccc4c(OC(=O)CCCCCN)c(OC)c(OC)cc4c23)ccc1OC(=O)CCCCCN [Compound 193]
GI50 (K-562): 0.123 µM
CC50 (K-562): 3.91 µM
IC (TGI) (K-562): 0.399 µM
GI50 (A-549): 0.607 µM
CC50 (A-549): 10.2 µM
IC (TGI) (A-549): 10.2 µM
GI50 (SK-MEL-28): 0.101 µM
CC50 (SK-MEL-28): 10.2 µM
IC (TGI) (SK-MEL-28): 0.497 µM
GI50 (HT-29): 10.2 µM
CC50 (HT-29): 10.2 µM
IC (TGI) (HT-29): 10.2 µM
GI50 (LoVo): 0.35 µM
CC50 (LoVo): 10.2 µM
IC (TGI) (LoVo): 0.847 µM
GI50 (LoVo-Dox): 0.313 µM
CC50 (LoVo-Dox): 10.2 µM
IC (TGI) (LoVo-Dox): 10.2 µM
GI50 (DU-145): 0.0333 µM
CC50 (DU-145): 0.438 µM
IC (TGI) (DU-145): 0.128 µM
GI50 (LNCaP): 0.118 µM
CC50 (LNCaP): 5.49 µM
IC (TGI) (LNCaP): 0.491 µM
GI50 (SK-BR-3): 0.227 µM
CC50 (SK-BR-3): 10.2 µM
IC (TGI) (SK-BR-3): 0.567 µM
GI50 (IGROV): 0.0741 µM
CC50 (IGROV): 3.48 µM
IC (TGI) (IGROV): 0.41 µM
GI50 (IGROV-ET): 0.136 µM
CC50 (IGROV-ET): 9.59 µM
IC (TGI) (IGROV-ET): 0.432 µM
GI50 (HeLa): 0.35 µM
CC50 (HeLa): 10.2 µM
IC (TGI) (HeLa): 10.2 µM
GI50 (HeLa-APL): 0.797 µM
CC50 (HeLa-APL): 10.2 µM
IC (TGI) (HeLa-APL): 10.2 µM
GI50 (PANC-1): 0.278 µM
CC50 (PANC-1): 10.2 µM
IC (TGI) (PANC-1): 3.6 µM
